# Where two headings read alike, the source gives them in different places.
# Experiments:
# [1] = target: T1, IGF-1R (Homo sapiens, UniProt P08069); assay: In vitro IGF-1R enzymatic assay (ADP-Glo kinase assay); assay type: biochemical; details: activated IGF-1R, 30 nM
# T1 construct: purchased Millipore 14-802
# Experimental: (§1) IC50 values of the compounds of the invention against IGF-1R and IR were measured in vitro using an ADP-Glo kinase assay Kit (Promega). […] Kinase reactions in both assays were conducted at 30° C. for 20 min with increasing concentrations of compounds of the invention.
# Additional compounds of the invention were screened against activated IGF-1R.
# [2] = target: T2, IR (Homo sapiens, UniProt P06213); assay: In vitro IR enzymatic assay (ADP-Glo kinase assay); assay type: biochemical; details: activated IR, 30 nM
# T2 construct: purchased Millipore 14-803
# T2 sequence (P06213 28-1382): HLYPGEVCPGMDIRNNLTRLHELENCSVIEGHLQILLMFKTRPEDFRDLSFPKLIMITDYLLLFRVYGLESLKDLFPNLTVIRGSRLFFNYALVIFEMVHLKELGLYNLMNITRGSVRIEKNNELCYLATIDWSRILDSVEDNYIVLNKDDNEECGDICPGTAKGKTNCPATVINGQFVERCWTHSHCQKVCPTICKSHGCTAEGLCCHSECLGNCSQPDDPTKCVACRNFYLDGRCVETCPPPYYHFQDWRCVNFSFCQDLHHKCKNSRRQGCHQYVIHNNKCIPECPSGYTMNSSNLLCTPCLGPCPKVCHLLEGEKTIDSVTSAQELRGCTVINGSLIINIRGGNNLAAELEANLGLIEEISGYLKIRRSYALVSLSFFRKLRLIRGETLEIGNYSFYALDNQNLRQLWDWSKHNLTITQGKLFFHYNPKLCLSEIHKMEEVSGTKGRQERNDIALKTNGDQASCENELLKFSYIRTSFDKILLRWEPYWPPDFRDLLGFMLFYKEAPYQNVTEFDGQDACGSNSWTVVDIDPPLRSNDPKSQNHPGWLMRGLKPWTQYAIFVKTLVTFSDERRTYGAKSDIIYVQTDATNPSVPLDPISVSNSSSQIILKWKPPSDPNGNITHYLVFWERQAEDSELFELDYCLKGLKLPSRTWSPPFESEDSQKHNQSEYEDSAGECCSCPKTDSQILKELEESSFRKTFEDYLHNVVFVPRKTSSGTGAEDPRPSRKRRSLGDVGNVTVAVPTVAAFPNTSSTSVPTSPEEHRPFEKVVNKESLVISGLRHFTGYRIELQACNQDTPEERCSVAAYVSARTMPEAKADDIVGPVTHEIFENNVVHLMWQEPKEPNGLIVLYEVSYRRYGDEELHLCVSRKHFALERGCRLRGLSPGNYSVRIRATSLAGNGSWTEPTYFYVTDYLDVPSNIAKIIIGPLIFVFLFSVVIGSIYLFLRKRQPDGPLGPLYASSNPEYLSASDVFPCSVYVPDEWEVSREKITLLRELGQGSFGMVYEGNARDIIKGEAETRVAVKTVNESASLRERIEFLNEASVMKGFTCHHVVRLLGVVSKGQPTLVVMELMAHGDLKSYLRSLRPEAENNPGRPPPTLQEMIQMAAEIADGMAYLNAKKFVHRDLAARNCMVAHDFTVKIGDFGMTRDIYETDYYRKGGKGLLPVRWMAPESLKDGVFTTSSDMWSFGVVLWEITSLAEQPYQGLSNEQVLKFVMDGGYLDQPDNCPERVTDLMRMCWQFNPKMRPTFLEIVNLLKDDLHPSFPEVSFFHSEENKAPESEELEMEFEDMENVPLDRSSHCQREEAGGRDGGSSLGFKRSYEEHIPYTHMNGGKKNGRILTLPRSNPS
# Experimental: as §1
# Additional compounds of the invention were screened against activated IR.
# [3] = system: Akt phosphorylation induced by IGF-1R; assay: Western blot analysis of Akt phosphorylation induced by IGF-1 in HT-29 cells; assay type: cell-based, Human; details: for Levels of phosphorylated AKT in treated cells (pAKT/actin): HT-29 cells, IGF-1; for p-AKT relative to levels with 0.1 nM compound: Table B2 lower part; for Normalized phosphorylated AKT (relative to actin) levels relative to 0.1 nM compound treatment: Table B2 upper part
# Procedure, shortened: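 HT-29 cells grown 24 h in DME/F12 with 10% FBS, serum-starved 24 h, then exposed 2 h to compound at 0.1, 1, 10 or 100; controls received DMSO or 10 ng/mL IGF-1. Lysate soluble fractions quantified by BCA before western blotting for phospho-Akt.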
# [4] = N1, read-out: % Inh @ 30 nM (N1)
# [5] = N2, read-out: % Inh @ 30 nM (N2)
# [6] = average, read-out: % Inh @ 30 nM Avg
# T1 sequence (P08069 31-1367): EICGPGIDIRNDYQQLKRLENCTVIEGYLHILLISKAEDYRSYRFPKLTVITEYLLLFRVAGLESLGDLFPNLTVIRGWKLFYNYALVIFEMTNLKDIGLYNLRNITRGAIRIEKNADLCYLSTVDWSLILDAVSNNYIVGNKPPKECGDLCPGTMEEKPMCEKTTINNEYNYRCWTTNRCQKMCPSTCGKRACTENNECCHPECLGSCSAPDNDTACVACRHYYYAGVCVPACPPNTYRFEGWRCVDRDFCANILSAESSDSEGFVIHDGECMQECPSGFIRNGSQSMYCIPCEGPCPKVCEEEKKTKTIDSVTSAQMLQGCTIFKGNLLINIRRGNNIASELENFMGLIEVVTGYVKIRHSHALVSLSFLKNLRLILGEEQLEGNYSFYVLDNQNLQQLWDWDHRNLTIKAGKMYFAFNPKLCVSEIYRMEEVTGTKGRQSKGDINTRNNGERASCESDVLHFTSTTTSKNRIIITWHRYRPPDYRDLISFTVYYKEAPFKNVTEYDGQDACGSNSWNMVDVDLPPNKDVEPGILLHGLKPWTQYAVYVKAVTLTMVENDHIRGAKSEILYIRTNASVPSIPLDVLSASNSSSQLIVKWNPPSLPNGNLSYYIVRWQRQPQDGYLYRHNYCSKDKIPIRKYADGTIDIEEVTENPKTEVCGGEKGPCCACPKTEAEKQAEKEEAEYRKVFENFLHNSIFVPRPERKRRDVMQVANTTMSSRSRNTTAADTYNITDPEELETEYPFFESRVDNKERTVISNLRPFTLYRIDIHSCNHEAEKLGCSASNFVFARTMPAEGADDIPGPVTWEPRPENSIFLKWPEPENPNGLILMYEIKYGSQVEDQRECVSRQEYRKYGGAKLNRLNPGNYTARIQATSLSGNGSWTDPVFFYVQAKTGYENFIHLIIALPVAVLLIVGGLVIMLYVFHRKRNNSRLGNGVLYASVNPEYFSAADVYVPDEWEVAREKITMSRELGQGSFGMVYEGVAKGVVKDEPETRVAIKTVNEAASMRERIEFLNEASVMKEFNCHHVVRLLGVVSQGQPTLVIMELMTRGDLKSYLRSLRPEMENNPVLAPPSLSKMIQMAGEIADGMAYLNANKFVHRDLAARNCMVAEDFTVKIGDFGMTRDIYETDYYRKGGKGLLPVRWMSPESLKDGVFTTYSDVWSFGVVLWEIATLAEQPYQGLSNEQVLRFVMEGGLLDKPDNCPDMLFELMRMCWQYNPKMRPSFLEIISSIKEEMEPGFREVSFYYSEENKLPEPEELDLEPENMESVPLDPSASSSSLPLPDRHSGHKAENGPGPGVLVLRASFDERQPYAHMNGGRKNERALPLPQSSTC
SMILES,"inhibition at 0.03 µM [1, 4] [%]","inhibition at 0.03 µM [1, 5] [%]","inhibition at 0.03 µM [1, 6] [%]","inhibition at 0.03 µM [2, 4] [%]","inhibition at 0.03 µM [2, 5] [%]","inhibition at 0.03 µM [2, 6] [%]",Levels of phosphorylated AKT in treated cells (pAKT/actin) ([3]; 0.1 nM compound),p-AKT relative to levels with 0.1 nM compound ([3]; 0.1 nM),Normalized phosphorylated AKT (relative to actin) levels relative to 0.1 nM compound treatment ([3]; 0.1 nM),Levels of phosphorylated AKT in treated cells (pAKT/actin) ([3]; 1 nM compound),p-AKT relative to levels with 0.1 nM compound ([3]; 1 nM),Normalized phosphorylated AKT (relative to actin) levels relative to 0.1 nM compound treatment ([3]; 1 nM),Levels of phosphorylated AKT in treated cells (pAKT/actin) ([3]; 10 nM compound),p-AKT relative to levels with 0.1 nM compound ([3]; 10 nM),Normalized phosphorylated AKT (relative to actin) levels relative to 0.1 nM compound treatment ([3]; 10 nM),Levels of phosphorylated AKT in treated cells (pAKT/actin) ([3]; 100 nM compound),p-AKT relative to levels with 0.1 nM compound ([3]; 100 nM),Normalized phosphorylated AKT (relative to actin) levels relative to 0.1 nM compound treatment ([3]; 100 nM),also measured
"O=C(Nc1cnccn1)C1CCCN1c1nc2c(c(Nc3cc(C4CC4)[nH]n3)n1)CCC2 (single isomer, unassigned) [Compound 6a, 1-(4-(3-cyclopropyl-1H-pyrazol-5-ylamino)-6,7-dihydro-5H-cyclopenta[d]pyrimidin-2-yl)-N-(pyrazin-2-yl)pyrrolidine-2-carboxamide]",22,33,28,-13,9,-2,1.85,1.0,1.0,1.74,0.9,0.9,1.40,0.8,0.8,1.17,0.6,0.6,–
"O=C(Nc1ccc(F)nc1)C1C(O)CCN1c1nc2c(c(Nc3cc(C4CC4)[nH]n3)n1)CCC2 (single isomer, unassigned) [Compound 11b, 1-(4-(5-cyclopropyl-1H-pyrazol-3-ylamino)-6,7-dihydro-5H-cyclopenta[d]pyrimidin-2-yl)-N-(6-fluoropyridin-3-yl)-3-hydroxypyrrolidine-2-carboxamide]",–,–,–,–,–,–,1.55,1.0,1.0,1.76,1.1,1.1,1.43,0.9,0.9,0.33,0.2,0.2,"% Inh @ 30 nM (N1) ([1]; N1, 0.03 µM): 22%; % Inh @ 30 nM (N2) ([1]; N2, 0.03 µM): 11%; % Inh @ 30 nM Avg ([1]; average): 17%; % Inh @ 30 nM (N1) ([2]; N1, 0.03 µM): −2%; % Inh @ 30 nM (N2) ([2]; N2, 0.03 µM): 9%; % Inh @ 30 nM Avg ([2]; average): 3%"
"CC(C)c1cc(Nc2nc(N3CCCC3C(=O)Nc3ccc(F)nc3)nc3c2CCCC3)n[nH]1 (single isomer, unassigned) [Compound 13a, N-(6-fluoropyridin-3-yl)-1-(4-(5-isopropyl-1H-pyrazol-3-ylamino)-5,6,7,8-tetrahydroquinazolin-2-yl)pyrrolidine-2-carboxamide]",10,34,22,4,-1,2,0.51,1.0,1.0,0.54,1.1,1.1,0.45,0.9,0.9,0.80,1.6,1.6,–

# Source: patent US9499519B2, “Fused pyrimidine compounds and use thereof” (Medivation Technologies, Inc., priority 2012, dated 2016)
